# What was measured:
# [1] = tested on: influx of neutrophils (PMNs) in hyperoxia; assay: rat oxygen-toxicity model of bronchopulmonary dysplasia; format: in vivo, rats; conditions: single 0.35 mg/kg ip day 2 after birth, 95% oxygen, sacrifice day 8
# Excerpt: Mason, S, N.; Richard L. Auten, J. Lung inflammation in hyperoxia can be prevented by antichemokine treatment in newborn rats. American Journal of Respiratory Critical Care Medicine 2000, 162, 2316-2323]. […] Litter sizes were the same. […] Dams were rotated daily between air and oxygen cages to avoid maternal oxygen toxicity. On day 8, the pups were weighed and then euthanized, tracheas are cannulated and the pulmonary artery is perfused with saline. Bronchoalveolar lavage fluid (BALF) was then obtained for cell count and chemokine analysis (FIG. 3). The lungs were removed and snap frozen for myeloperoxidase activity assay (neutrophil accumulation within lung parenchyma) and 8-isoprostane, a marker of lipid oxidation. The pulmonary artery was perfused and the lungs were inflation-fixed with buffered formalin at 25 cm H2O.
# [2] = tested on: neutrophils that accumulated in the carrageenan-treated air pouches; conditions: weekly ip injection days 1, 7, 14, 21; carrageenan day 22, exudate after 4 hours
# Protocol: J. Clin. Invest., 1993. 92(6):2675-82].
# A separate group of 5 animals was given vehicle by ip injection on the same days (0.9% saline, control, n=5). On day 16, air pouches were induced on the animals by injecting 3 ml of air subcutaneously on the back. On day 22 (i.e. one day after the last dose of drug or vehicle), inflammation was induced by injection of 1 ml of a suspension of carrageenan (2% weight/volume in calcium- and magnesium-free PBS). The mice were put back in their cages and allowed to run free for 4 hours. […] After 4 hours, the animals were sacrificed, the pouches flushed with 2 ml of PBS and the exudates harvested. Aliquots were diluted 1:1 with methylene blue (0.01% w/v in PBS), and the cells were counted.
# [3] = tested on: carrageenan-induced inflammation in air pouches; assay: duration of efficacy in the murine air-pouch model after cessation of 4 weeks of dosing; format: in vivo, mice; conditions: aminopterin 0.05 mg/kg, methotrexate 1.0 mg/kg
# Protocol: We therefore examined the rate at which anti-inflammatory activity was lost in the air-pouch model after the cessation of 4 weeks of dosing at the maximally efficacious dose (FIG. 2).
# On day 25 the air pouches were re-inflated with 1.5 ml of air. Pouches were re-inflated as needed to maintain them.
# canine atopic dermatitis = conditions: oral about 0.2 mg/kg/week
# Protocol: […] Subjects were assessed at baseline and at weeks 2 and 4 of the trial, and every other week of the 1-year extension phase.
# Subjects were assessed at baseline and at weeks 2 and 4.
# ma104 cells = conditions: read-out: EC50 of adenosine release (prior art); Cronstein'91; cited from earlier work
smiles,measurement,setting,value
CN(Cc1cnc2nc(N)nc(N)c2n1)c1ccc(C(=O)N[C@@H](CCC(=O)O)C(=O)O)cc1 [methotrexate],influx of neutrophils in bronchoalveolar lavage fluid,[1],failed to reduce the influx of neutrophils
same,EC50 for diminishing the number of neutrophils accumulated in carrageenan-treated air pouches,[2],0.04 mg/kg/wk
same,difference between aminopterin and methotrexate in rate of recovery of inflammation,"[3]; 8, 12 or 22 days after last of 4 weekly ip doses",no statistically significant difference
same,duration of action,[3]; after last of 4 weekly ip doses,quite long
same,time to produce efficacy compared to aminopterin,canine atopic dermatitis; 4-week trial,took longer to produce efficacy compared to aminopterin
same,outcome of the five treated dogs,canine atopic dermatitis; assessed at weeks 2 and 4,"Three dogs did not do well, one had not improved as of the last assessment and one dog improved markedly"
same,EC50,ma104 cells,~1 nM
